Experiment [1] has as its system HCT116 MTAP-deleted cell lines. In words: Cell viability assay (CellTiter-Glo, 7 days), HCT116 MTAP-deleted. The format is cell-based. The settings on record: Homo sapiens, HCT-116; cell viability, HCT116 MTAP-deleted; class symbols; read-out: CC50. In short, it runs like this: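 Read-out was CellTiter-Glo luminescence after a 7-day incubation (37 °C, 5% CO2) of HCT116 cells, MTAP-deleted or WT, on dose-response compound plates. CC50 values come from each line; where marked *, selectivity is overstated because poor solubility impaired the WT CC50 measurement.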
(ATP-based viability assays read luminescence as a measure of living cells.)

Experiment [2] concerns Symmetric Di-methyl Arginine (SDMA) signal (PRMT5 inhibition) in HCT116 MTAP-deleted cells. Put plainly: Symmetric di-methyl arginine image-based high content screen assay (SDMA assay), HCT116 MTAP-deleted. In kind it is cell-based. As to conditions: for EC50 selectivity: HCT116 WT versus HCT116 MTAP-deleted; for EC50: Homo sapiens, HCT-116, HCT116 MTAP-deleted, class symbols. In short, it runs like this:
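Read-out is imaging of per-cell mean SDMA immunofluorescence (Alexa 488), with cells segmented by DAPI. Cells, MTAP-deleted or wild-type HCT116, were exposed to compound for 3 days at 37 °C before fixation. EC50 derived by 4-parameter non-linear logistic regression.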

On to `CN(C(=O)c1cc2c(cc1F)nc(N)c1cncn12)[C@@H]1COc2cc(C(F)(F)F)ccc21` [Ff-12, (S)-4-amino-7-fluoro-N-methyl-N-(6-(trifluoromethyl)-2,3-dihydrobenzofuran-3-yl)imidazo[1,5-a]quinoxaline-8-carboxamide], for which the half-maximal cytotoxic concentration (CC50) – broadly, the concentration giving 50% cytotoxicity – in experiment [1] is less than 100 nM. In experiment [2], the EC50 selectivity was found to be 196 and the concentration for a half-maximal effect (EC50) (commonly the concentration giving half of the maximal effect) is no more than 1 nM.
In the same order, the values of `CN(C(=O)c1cc2c(cc1F)nc(N)c1cncn12)C1CCc2nc(C(F)(F)F)ccc21` (stereo not drawn) [Ff-13, 4-amino-7-fluoro-N-methyl-N-(2-(trifluoromethyl)-6,7-dihydro-5H-cyclopenta[b]pyridin-5-yl)imidazo[1,5-a]quinoxaline-8-carboxamide] are less than 100 nM, 176 and no more than 1 nM.
The matching figures for `CN(C(=O)c1cc2c(cc1F)nc(N)c1cncn12)[C@@H]1COCc2cc(Br)ccc21` [Ff-14, (S)-4-amino-N-(7-bromoisochroman-4-yl)-7-fluoro-N-methylimidazo[1,5-a]quinoxaline-8-carboxamide]: less than 100 nM, 241 and no more than 1 nM.
The matching figures for `Cc1ncc2c(N)nc3ccc(C(=O)N(C)[C@@H]4COc5cc(C#CC6CCCO6)ccc54)cc3n12` (stereo partly drawn) [Ff-17, 4-amino-N,1-dimethyl-N-((3S)-6-((tetrahydrofuran-2-yl)ethynyl)-2,3-dihydrobenzofuran-3-yl)imidazo[1,5-a]quinoxaline-8-carboxamide]: 100 to 1000 nM, 253 and 1 to 5 nM.
Take `COC(C)(C)C#Cc1ccc2c(c1)OC[C@H]2N(C)C(=O)c1ccc2nc(N)c3cnc(C)n3c2c1` [Ff-18, (S)-4-amino-N-(6-(3-methoxy-3-methylbut-1-yn-1-yl)-2,3-dihydrobenzofuran-3-yl)-N,1-dimethylimidazo[1,5-a]quinoxaline-8-carboxamide]: the CC50 in experiment [1] was 100 to 1000 nM. Moreover, in experiment [2], the EC50 selectivity worked out at 447 and the EC50 was greater than 5 nM.
In the same order, the values of `Cc1ncc2c(N)nc3ccc(C(=O)N(C)[C@@H]4COc5cc(C#CC6(O)CC6)ccc54)cc3n12` [Ff-19, (S)-4-amino-N-(6-((1-hydroxycyclopropyl)ethynyl)-2,3-dihydrobenzofuran-3-yl)-N,1-dimethylimidazo[1,5-a]quinoxaline-8-carboxamide] are 100 to 1000 nM, 129 and greater than 5 nM.
On to `Cc1ncc2c(N)nc3ccc(C(=O)N(C)[C@@H]4COc5cc(C#CC6(C)COC6)ccc54)cc3n12` [Ff-20, (S)-4-amino-N,1-dimethyl-N-(6-((3-methyloxetan-3-yl)ethynyl)-2,3-dihydrobenzofuran-3-yl)imidazo[1,5-a]quinoxaline-8-carboxamide], for which the cytotoxic concentration (CC50) in experiment [1] is less than 100 nM. Besides, in experiment [2], the EC50 selectivity was determined as 382 and the EC50 was 1 to 5 nM.
In the same order, the values of `Cc1ncc2c(N)nc3ccc(C(=O)N(C)[C@@H]4COc5nc(C(F)(F)F)ccc54)cc3n12` [Ff-21, (S)-4-amino-N,1-dimethyl-N-(6-(trifluoromethyl)-2,3-dihydrofuro[2,3-b]pyridin-3-yl)imidazo[1,5-a]quinoxaline-8-carboxamide] are 100 to 1000 nM, 874 and 1 to 5 nM.
On to `CN(C(=O)c1cc2c(cc1F)nc(N)c1cncn12)[C@@H]1COc2nc(C(F)(F)F)ccc21` [Ff-22, (S)-4-amino-7-fluoro-N-methyl-N-(6-(trifluoromethyl)-2,3-dihydrofuro[2,3-b]pyridin-3-yl)imidazo[1,5-a]quinoxaline-8-carboxamide], for which, in experiment [1], the CC50 was less than 100 nM. For the same molecule, in experiment [2], the EC50 selectivity turned out to be 587 and the EC50 lay in the range of 1 to 5 nM.
The matching figures for `Nc1nc2cc(F)c(C(=O)N(Cc3ccc(-c4cnn(C(F)(F)F)c4)cc3F)C34CC(C3)C4)cc2n2cncc12` [Ff-23, 4-amino-N-(bicyclo[1.1.1]pentan-1-yl)-7-fluoro-N-(2-fluoro-4-(1-(trifluoromethyl)-1H-pyrazol-4-yl)benzyl)imidazo[1,5-a]quinoxaline-8-carboxamide]: less than 100 nM, 48 and 1 to 5 nM.
In the same order, the values of `CN(Cc1ccc(-c2cnn(C(F)(F)F)c2)cc1F)C(=O)c1cc2c(cc1F)nc(N)c1cncn12` [Ff-24, 4-amino-7-fluoro-N-(2-fluoro-4-(1-(trifluoromethyl)-1H-pyrazol-4-yl)benzyl)-N-methylimidazo[1,5-a]quinoxaline-8-carboxamide] are 100 to 1000 nM, 1985 and 1 to 5 nM.
In the same order, the values of `CCN(Cc1ccc(C(F)(F)F)cc1F)C(=O)c1ccc2nc(N)c3cncn3c2c1` [Ff-25, 4-amino-N-ethyl-N-[[2-fluoro-4-(trifluoromethyl)phenyl]methyl]imidazo[1,5-a]quinoxaline-8-carboxamide] are less than 100 nM, 312 and 1 to 5 nM.
Regarding `CCN(Cc1ccc(C(F)(F)F)cc1F)C(=O)c1cc2c(cc1F)nc(N)c1cncn12` [Ff-26, 4-amino-N-ethyl-7-fluoro-N-[[2-fluoro-4-(trifluoromethyl)phenyl]methyl]imidazo[1,5-a]quinoxaline-8-carboxamide], the CC50 in experiment [1] was less than 100 nM. In experiment [2], the EC50 selectivity is 210 and the concentration for a half-maximal effect (EC50) is no more than 1 nM.
The matching figures for `Nc1nc2cc(F)c(C(=O)N(Cc3ccc(C(F)(F)F)cc3F)C(CO)CO)cc2n2cncc12` [Ff-27, 4-amino-7-fluoro-N-[[2-fluoro-4-(trifluoromethyl)phenyl]methyl]-N-[2-hydroxy-1-(hydroxymethyl)ethyl]imidazo[1,5-a]quinoxaline-8-carboxamide]: greater than 1000 nM, 51 and greater than 5 nM.
The matching figures for `Nc1nc2cc(F)c(C(=O)N3CCC4CC3c3ccc(C(F)(F)F)cc34)cc2n2cncc12` (stereo not drawn) [Ff-29, (4-amino-7-fluoroimidazo[1,5-a]quinoxalin-8-yl)(7-(trifluoromethyl)-1,3,4,5-tetrahydro-2H-1,5-methanobenzo[c]azepin-2-yl)methanone]: 100 to 1000 nM, 308 and 1 to 5 nM.
The matching figures for `CN(Cc1ccc(Cl)cc1C#N)C(=O)c1cc2c(cc1F)nc(N)c1cncn12` [Ff-32, 4-amino-N-(4-chloro-2-cyanobenzyl)-7-fluoro-N-methylimidazo[1,5-a]quinoxaline-8-carboxamide]: 100 to 1000 nM, 346 and 1 to 5 nM.
Consider `Cc1ncn2c(N)nc3cc(F)c(C(=O)N(Cc4ccc(C(F)(F)F)cn4)[C@H](C)c4ncccn4)cc3c12` [Ff-54, (R)-5-amino-8-fluoro-1-methyl-N-(1-(pyrimidin-2-yl)ethyl)-N-((5-(trifluoromethyl)pyridin-2-yl)methyl)imidazo[1,5-c]quinazoline-9-carboxamide], for which the cytotoxic concentration (CC50) in experiment [1] was less than 100 nM. For the same molecule, in experiment [2], the EC50 selectivity worked out at 95 and the concentration for a half-maximal effect (EC50) was 1 to 5 nM.
